Reference: patent US8592174B2, “Peptidase substrates” (bioMérieux, S.A., priority 2009, dated 2013)

Key:
Format in all cases: cell-based
Conditions in all cases: 75 mg/l, 48 h 37° C.
[1] = test system: Klebsiella pneumoniae 0008009; test: Peptidase detection on Columbia medium (Example 5); note: key: +++: good growth/high coloration strength; ++: medium growth/medium coloration strength; +: weak growth/weak coloration strength; −: no growth/no coloration
Protocol: (§1) After homogenization, the media were distributed into Petri dishes 55 mm in diameter. A medium acting as a growth control (Columbia) and denoted C was also poured.
(§2) Twenty-two strains of microorganisms were inoculated with a 10 μl calibrated loop according to the three-quadrant streaking method using bacterial suspensions at 0.5 McFarland.

[2] = test system: Burkholderia cepacia 7507032; test: Peptidase detection on Columbia medium (Example 5)
Protocol: as §1, §2

[3] = test system: Candida glabrata 0408083; test: Peptidase detection on Columbia medium (Example 5); note: key: +++: good growth/high coloration strength; ++: medium growth/medium coloration strength; +: weak growth/weak coloration strength; −: no growth/no coloration
Protocol: as §1, §2

[4] = test system: Pseudomonas aeruginosa 0001001; test: Peptidase detection on Columbia medium (Example 5); note: key: +++: good growth/high coloration strength; ++: medium growth/medium coloration strength; +: weak growth/weak coloration strength; −: no growth/no coloration
Protocol: as §1, §2

[5] = test system: Listeria monocytogenes 8812049; test: Peptidase detection on Columbia medium (Example 5)
Protocol: as §1, §2

[6] = test system: Escherichia coli 0002005; test: Peptidase detection on Columbia medium (Example 5); note: key: +++: good growth/high coloration strength; ++: medium growth/medium coloration strength; +: weak growth/weak coloration strength; −: no growth/no coloration
Protocol: as §1, §2

[7] = test system: Enterococcus faecium 0610021; test: Peptidase detection on Columbia medium (Example 5)
Protocol: as §1, §2

[8] = test system: Salmonella ser. Typhimurium 0801029; test: Peptidase detection on Columbia medium (Example 5)
Protocol: as §1, §2

[9] = test system: Citrobacter freundii 0006197; test: Peptidase detection on Columbia medium (Example 5)
Protocol: as §1, §2

[10] = test system: Serratia marcescens 7303004; test: Peptidase detection on Columbia medium (Example 5)
Protocol: as §1, §2

[11] = test system: Enterococcus faecalis 0008192; test: Peptidase detection on Columbia medium (Example 5)
Protocol: as §1, §2

[12] = test system: Acinetobacter baumannii 0604029; test: Peptidase detection on Columbia medium (Example 5)
Protocol: as §1, §2

[13] = test system: Staphylococcus epidermidis 0203050; test: Peptidase detection on Columbia medium (Example 5)
Protocol: as §1, §2

[14] = test system: Staphylococcus aureus 7811049; test: Peptidase detection on Columbia medium (Example 5)
Protocol: as §1, §2

[15] = test system: Morganella morganii 9207053; test: Peptidase detection on Columbia medium (Example 5)
Protocol: as §1, §2

[16] = test system: Yersinia enterocolitica 7605019; test: Peptidase detection on Columbia medium (Example 5)
Protocol: as §1, §2

[17] = test system: Enterobacter cloacae 0604040; test: Peptidase detection on Columbia medium (Example 5)
Protocol: as §1, §2

[18] = test system: Candida albicans 0801025; test: Peptidase detection on Columbia medium (Example 5)
Protocol: as §1, §2

[19] = test system: MRSA 0303033; test: Peptidase detection on Columbia medium (Example 5)
Protocol: as §1, §2

[20] = test system: Streptococcus pyogenes 9806380; test: Peptidase detection on Columbia medium (Example 5)
Protocol: as §1, §2

[21] = test system: Bacillus subtilis 0204038; test: Peptidase detection on Columbia medium (Example 5)
Protocol: as §1, §2

[22] = test system: Providencia rettgeri 0706064; test: Peptidase detection on Columbia medium (Example 5)
Protocol: as §1, §2

[23] = test system: Pseudomonas aeruginosa 0001001; test: Peptidase detection on Columbia medium (Example 3); set-up: Coloration strength: key: +++: good growth/high coloration strength; ++: medium growth/medium coloration strength; +: weak growth/weak coloration strength; −: no growth/no coloration
Source text: (§3) A medium serving as a growth control (Columbia) and denoted C was also poured.

[24] = test system: Serratia marcescens 7303004; test: Peptidase detection on Columbia medium (Example 3); set-up: Coloration strength: key: +++: good growth/high coloration strength; ++: medium growth/medium coloration strength; +: weak growth/weak coloration strength; −: no growth/no coloration
Source text: as §3

[25] = test system: Klebsiella pneumoniae 0008009; test: Peptidase detection on Columbia medium (Example 3)
Source text: as §3

[26] = test system: Burkholderia cepacia 7507032; test: Peptidase detection on Columbia medium (Example 3)
Source text: as §3

[27] = test system: Candida glabrata 0408083; test: Peptidase detection on Columbia medium (Example 3)
Source text: as §3

[28] = test system: Listeria monocytogenes 8812049; test: Peptidase detection on Columbia medium (Example 3)
Source text: as §3

[29] = test system: Escherichia coli 0002005; test: Peptidase detection on Columbia medium (Example 3)
Source text: as §3

[30] = test system: Enterococcus faecium 0610021; test: Peptidase detection on Columbia medium (Example 3)
Source text: as §3

[31] = test system: Salmonella ser. Typhimurium 0801029; test: Peptidase detection on Columbia medium (Example 3)
Source text: as §3

[32] = test system: Citrobacter freundii 0006197; test: Peptidase detection on Columbia medium (Example 3)
Source text: as §3

[33] = test system: Enterococcus faecalis 0008192; test: Peptidase detection on Columbia medium (Example 3)
Source text: as §3

[34] = test system: Acinetobacter baumannii 0604029; test: Peptidase detection on Columbia medium (Example 3)
Source text: as §3

[35] = test system: Staphylococcus epidermidis 0203050; test: Peptidase detection on Columbia medium (Example 3)
Source text: as §3

[36] = test system: Staphylococcus aureus 7811049; test: Peptidase detection on Columbia medium (Example 3)
Source text: as §3

[37] = test system: Morganella morganii 9207053; test: Peptidase detection on Columbia medium (Example 3)
Source text: as §3

[38] = test system: Yersinia enterocolitica 7605019; test: Peptidase detection on Columbia medium (Example 3)
Source text: as §3

[39] = test system: Enterobacter cloacae 0604040; test: Peptidase detection on Columbia medium (Example 3)
Source text: as §3

[40] = test system: Candida albicans 0801025; test: Peptidase detection on Columbia medium (Example 3)
Source text: as §3

[41] = test system: MRSA 0303033; test: Peptidase detection on Columbia medium (Example 3)
Source text: as §3

[42] = test system: Streptococcus pyogenes 9806380; test: Peptidase detection on Columbia medium (Example 3)
Source text: as §3

[43] = test system: Bacillus subtilis 0204038; test: Peptidase detection on Columbia medium (Example 3)
Source text: as §3

[44] = test system: Providencia rettgeri 0706064; test: Peptidase detection on Columbia medium (Example 3)
Source text: as §3

Structure (SMILES): C[C@H](N)C(=O)Nc1ccc(C=Cc2ccc3ccccc3[n+]2C)cc1.Cl.[Cl-] [L-alanyl-2-(4′-amidostyryl)-N-methylquinolinium (dichloride)]
- Coloration strength [1]: −
- Growth ([1]; control C: ++): ++
- Coloration strength [2]: −
- Growth ([2]; control C: ++): ++
- Coloration strength [3]: −
- Growth ([3]; control C: +): +
- Coloration strength [4]: −
- Growth ([4]; control C: ++): ++
- Color [5]: orange
- Coloration strength [5]: +
- Growth ([5]; control C: +): +
- Coloration strength [6]: −
- Growth ([6]; control C: ++): ++
- Color [7]: orange
- Coloration strength [7]: +
- Growth ([7]; control C: +): +
- Coloration strength [8]: −
- Growth ([8]; control C: ++): ++
- Coloration strength [9]: −
- Growth ([9]; control C: ++): ++
- Color [10]: orange
- Coloration strength [10]: +
- Growth ([10]; control C: ++): ++
- Color [11]: orange
- Coloration strength [11]: +
- Growth ([11]; control C: +): +
- Coloration strength [12]: −
- Growth ([12]; control C: ++): ++
- Color [13]: orange
- Coloration strength [13]: +
- Growth ([13]; control C: ++): ++
- Coloration strength [14]: −
- Growth ([14]; control C: ++): ++
- Coloration strength [15]: −
- Growth ([15]; control C: ++): ++
- Coloration strength [16]: −
- Growth ([16]; control C: +): +
- Coloration strength [17]: −
- Growth ([17]; control C: ++): ++
- Coloration strength [18]: −
- Growth ([18]; control C: ++): ++
- Color [19]: orange
- Coloration strength [19]: +
- Growth ([19]; control C: ++): ++
- Coloration strength [20]: −
- Growth ([20]; control C: +): +
- Color [21]: orange
- Coloration strength [21]: +
- Growth ([21]; control C: ++): ++
- Coloration strength [22]: −
- Growth ([22]; control C: ++): ++

Structure (SMILES): Cc1cc(C=Cc2ccc(NC(=O)[C@@H]3CCC(=O)N3)cc2)c2ccccc2[n+]1C.[I-] [pyroglutamyl-4-(4′-amidostyryl)-N-methylquinaldinium iodide]
- Color [23]: Orangey-red
- Coloration strength [23]: +++
- Growth ([23]; control C: +++): +++
- Coloration strength [24]: ++
- Growth ([24]; control C: +++): +++
- Coloration strength [25]: −
- Growth ([25]; control C: +++): +++
- Coloration strength [26]: −
- Growth ([26]; control C: ++): ++
- Coloration strength [27]: −
- Growth ([27]; control C: +): −
- Coloration strength [28]: −
- Growth ([28]; control C: ++): ++
- Coloration strength [29]: −
- Growth ([29]; control C: +++): +++
- Coloration strength [30]: −
- Growth ([30]; control C: ++): ++
- Coloration strength [31]: −
- Growth ([31]; control C: +++): +++
- Coloration strength [32]: −
- Growth ([32]; control C: +++): +++
- Coloration strength [33]: −
- Growth ([33]; control C: ++): ++
- Coloration strength [34]: −
- Growth ([34]; control C: +++): +++
- Coloration strength [35]: −
- Growth ([35]; control C: ++): −
- Coloration strength [36]: −
- Growth ([36]; control C: ++): ++
- Coloration strength [37]: −
- Growth ([37]; control C: +++): +++
- Coloration strength [38]: −
- Growth ([38]; control C: ++): +
- Coloration strength [39]: −
- Growth ([39]; control C: +++): +++
- Coloration strength [40]: −
- Growth ([40]; control C: ++): +
- Coloration strength [41]: −
- Growth ([41]; control C: +++): ++
- Coloration strength [42]: −
- Growth ([42]; control C: −): −
- Coloration strength [43]: −
- Growth ([43]; control C: +++): −
- Coloration strength [44]: −
- Growth ([44]; control C: +++): +++
